In the NIST ThermoML archive (doi:10.1021/je049595u):

Experiments:
[1] = Molar enthalpy of transition or fusion; settings: Crystal
[2] = molar heat capacity at saturation pressure

Cc1cccc2cccnc12 [8-methylquinoline]
Settings | mass density [kg/m3] | molar heat capacity [J/K/mol] | vapor or sublimation pressure [kPa]
315.61 K, Liquid, Inclined piston gauge | – | – | 0.0242
324.98 K, Liquid, Inclined piston gauge | – | – | 0.0466
334.99 K, Liquid, Inclined piston gauge | – | – | 0.0905
344.98 K, Liquid, Inclined piston gauge | – | – | 0.1674
354.98 K, Liquid, Inclined piston gauge | – | – | 0.2975
364.98 K, Liquid, Inclined piston gauge | – | – | 0.5091
374.98 K, Liquid, Inclined piston gauge | – | – | 0.8418
384.98 K, Liquid, Inclined piston gauge | – | – | 1.35
393.84 K, Liquid, Twin ebulliometer | – | – | 2.001
394.97 K, Liquid, Inclined piston gauge | – | – | 2.102
400.6 K, Liquid, Twin ebulliometer | – | – | 2.665
404.97 K, Liquid, Inclined piston gauge | – | – | 3.19
410.7 K, Liquid, Twin ebulliometer | – | – | 4.004
418.2 K, Liquid, Twin ebulliometer | – | – | 5.336
429.38 K, Liquid, Twin ebulliometer | – | – | 8.002
437.77 K, Liquid, Twin ebulliometer | – | – | 10.67
444.5 K, Liquid, Twin ebulliometer | – | – | 13.31
451.61 K, Liquid, Twin ebulliometer | – | – | 16.67
457.46 K, Liquid, Twin ebulliometer | – | – | 19.93
465.16 K, Liquid, Twin ebulliometer | – | – | 25.02
465.17 K, Liquid, Twin ebulliometer | – | – | 25.02
472.94 K, Liquid, Twin ebulliometer | – | – | 31.18
480.74 K, Liquid, Twin ebulliometer | – | – | 38.57
488.6 K, Liquid, Twin ebulliometer | – | – | 47.36
496.51 K, Liquid, Twin ebulliometer | – | – | 57.8
504.49 K, Liquid, Twin ebulliometer | – | – | 70.12
512.5 K, Liquid, Twin ebulliometer | – | – | 84.53
520.56 K, Liquid, Twin ebulliometer | – | – | 101.31
528.68 K, Liquid, Twin ebulliometer | – | – | 120.8
536.85 K, Liquid, Twin ebulliometer | – | – | 143.23
545.06 K, Liquid, Twin ebulliometer | – | – | 169
553.32 K, Liquid, Twin ebulliometer | – | – | 198.45
553.33 K, Liquid, Twin ebulliometer | – | – | 198.45
561.65 K, Liquid, Twin ebulliometer | – | – | 232
570.01 K, Liquid, Twin ebulliometer | – | – | 270
769.9 K, Gas, Measured as part of TC determination by DSC | 160.5 | – | –
775.8 K, Liquid, Measured as part of TC determination by DSC | 444.6 | – | –
784 K, Gas, Measured as part of TC determination by DSC | 244.7 | – | –
785.1 K, Liquid, Measured as part of TC determination by DSC | 349.8 | – | –
786 K, Gas, Measured as part of TC determination by DSC | 318.7 | – | –
[2], 460 K, Liquid | – | 289.36 | –
[2], 480 K, Liquid | – | 297.35 | –
[2], 500 K, Liquid | – | 305.31 | –
[2], 520 K, Liquid | – | 313.17 | –
[2], 540 K, Liquid | – | 320.92 | –
[2], 560 K, Liquid | – | 328.51 | –
[2], 580 K, Liquid | – | 335.9 | –
[2], 600 K, Liquid | – | 343.02 | –
[2], 620 K, Liquid | – | 349.87 | –
[2], 640 K, Liquid | – | 356.47 | –
[2], 660 K, Liquid | – | 362.89 | –
[2], 680 K, Liquid | – | 369.38 | –
[2], 700 K, Liquid | – | 376.44 | –

Settings | Critical temperature, Liquid [K] | mass density, 323.14 K [kg/m3] | mass density, 348.13 K [kg/m3] | mass density, 373.12 K [kg/m3] | mass density, 398.12 K [kg/m3] | mass density, 423.11 K [kg/m3] | mass density, 448.11 K [kg/m3] | mass density, 473.11 K [kg/m3] | mass density, 498.11 K [kg/m3]
DTA | 787 | – | – | – | – | – | – | – | –
Liquid | – | 1049.3 | 1029 | 1009.5 | 988.5 | 967.8 | 947.5 | 926.6 | 904

Settings | Molar enthalpy of transition or fusion [kcal/mol] | Triple point temperature [K]
Crystal | – | 246.94
[1] | 2.565 | –

molar heat capacity [J/K/mol], [2], Vacuum adiabatic calorimetry
Settings | Crystal | Liquid
5 K | 0.45 | –
6.105 K | 0.81 | –
7.027 K | 1.26 | –
8.004 K | 1.86 | –
9.004 K | 2.64 | –
10 K | 3.53 | –
10.06 K | 3.58 | –
11.21 K | 4.73 | –
12.47 K | 6.05 | –
13.87 K | 7.66 | –
15.42 K | 9.47 | –
17.14 K | 11.51 | –
19.04 K | 13.71 | –
20 K | 14.8 | –
21.13 K | 16.07 | –
23.44 K | 18.64 | –
25.98 K | 21.32 | –
28.81 K | 24.19 | –
30 K | 25.37 | –
31.94 K | 27.23 | –
35.44 K | 30.44 | –
39.36 K | 33.85 | –
40 K | 34.39 | –
43.73 K | 37.46 | –
48.59 K | 41.21 | –
50 K | 42.28 | –
52.43 K | 44.08 | –
53.97 K | 45.21 | –
57.17 K | 47.47 | –
59.94 K | 49.35 | –
60 K | 49.4 | –
62.72 K | 51.23 | –
69 K | 55.27 | –
70 K | 55.87 | –
75.99 K | 59.46 | –
80 K | 61.81 | –
83.66 K | 63.9 | –
86.44 K | 65.46 | –
90 K | 67.47 | –
91.89 K | 68.5 | –
94.09 K | 69.68 | –
100 K | 72.87 | –
100.75 K | 73.28 | –
103.06 K | 74.5 | –
112.71 K | 79.57 | –
120 K | 83.32 | –
123.65 K | 85.25 | –
135.63 K | 91.49 | –
140 K | 93.7 | –
147.53 K | 97.64 | –
160 K | 104.11 | –
160.44 K | 104.42 | –
170 K | – | 184.91
174.36 K | 111.83 | –
175.64 K | 112.44 | –
175.79 K | – | 185.73
180 K | 114.69 | 186.36
181.22 K | – | 186.55
186.72 K | – | 187.58
186.91 K | 118.52 | –
188.79 K | 119.55 | –
199.75 K | 125.65 | –
200 K | 125.52 | 190.48
203.2 K | 127.63 | –
212.46 K | 132.96 | –
215.19 K | 134.54 | –
220 K | 136.62 | 195.81
224.46 K | 140.5 | –
225.29 K | 140.97 | –
232.54 K | – | 199.61
235.37 K | 150.91 | –
238.7 K | – | 201.71
240 K | 147.98 | 202.12
245.88 K | – | 204
246.94 K | 151.99 | 204.38
253.58 K | – | 206.7
253.72 K | – | 206.81
254.07 K | – | 206.89
256.36 K | – | 207.75
257.67 K | – | 208.16
260 K | – | 208.99
265.24 K | – | 210.84
269.69 K | – | 212.52
280 K | – | 216.4
282.82 K | – | 217.48
296.93 K | – | 222.97
298.15 K | – | 223.45
300 K | – | 224.18
310.97 K | – | 228.56
312.23 K | – | 229.08
320 K | – | 232.22
326.77 K | – | 234.98
340 K | – | 240.4
341.89 K | – | 241.17
357.58 K | – | 247.68
360 K | – | 248.69
373.8 K | – | 254.38
380 K | – | 256.96
389.63 K | – | 260.93
400 K | – | 265.18
405.69 K | – | 267.5
420 K | – | 273.33
422.45 K | – | 274.32
437.11 K | – | 280.26
440 K | – | 281.4
